Source: patent publication US10669242B2 (priority 2016, dated 2020)

Each compound was assayed against T1, recombinant glucosyltransferase domain of C. difficile Toxin B/TcdB (Clostridioides difficile, UniProt P18177) (assay: biochemical).
T1 construct: 6-His (C); purchased R&D Systems 6246-GT
T1 sequence (P18177 1-543): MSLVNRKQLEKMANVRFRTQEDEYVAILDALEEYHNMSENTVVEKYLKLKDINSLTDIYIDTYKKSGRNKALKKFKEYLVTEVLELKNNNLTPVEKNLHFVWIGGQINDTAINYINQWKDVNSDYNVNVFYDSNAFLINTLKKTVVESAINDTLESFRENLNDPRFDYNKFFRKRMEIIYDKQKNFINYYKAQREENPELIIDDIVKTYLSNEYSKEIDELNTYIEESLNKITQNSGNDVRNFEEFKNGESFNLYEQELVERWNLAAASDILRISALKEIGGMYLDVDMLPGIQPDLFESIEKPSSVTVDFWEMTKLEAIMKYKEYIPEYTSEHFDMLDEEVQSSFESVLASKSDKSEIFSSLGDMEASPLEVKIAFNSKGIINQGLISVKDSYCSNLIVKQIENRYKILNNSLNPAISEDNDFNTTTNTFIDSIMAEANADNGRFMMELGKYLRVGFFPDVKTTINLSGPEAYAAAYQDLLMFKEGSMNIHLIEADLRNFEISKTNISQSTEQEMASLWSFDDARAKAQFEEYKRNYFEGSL
`Cc1ccc(NC(=O)c2ccc(S(=O)(=O)N3Cc4ccc(Cl)cc4NC(=O)[C@H]3Cc3ccccn3)cc2)nc1` [Example 19a, (R)-4-((8-Chloro-2-oxo-3-(pyridin-2-ylmethyl)-2,3-dihydro-1H-benzo[e][1,4]diazepin-4(5H)-yl)sulfonyl)-N-(5-methylpyridin-2-yl)benzamide] gave an IC50 of 100 to 999 nM. With `O=C(Nc1ccccn1)c1ccc(S(=O)(=O)N2Cc3ccc(Cl)cc3NC(=O)[C@H]2Cc2ccccn2)cc1` [Example 19b, (R)-4-((8-chloro-2-oxo-3-(pyridin-2-ylmethyl)-2,3-dihydro-1H-benzo[e][1,4]diazepin-4(5H)-yl)sulfonyl)-N-(pyridin-2-yl)benzamide] the IC50 was less than 100 nM. Compound `O=C(Nc1ccccn1)c1ccc(S(=O)(=O)N2Cc3ccc(Cl)cc3NC(=O)[C@@H]2Cc2ccccn2)cc1` [Example 19c, (S)-4-((8-chloro-2-oxo-3-(pyridin-2-ylmethyl)-2,3-dihydro-1H-benzo[e][1,4]diazepin-4(5H)-yl)sulfonyl)-N-(pyridin-2-yl)benzamide] has an IC50 of 100 to 999 nM. Compound `COc1ccc(NC(=O)c2ccc(S(=O)(=O)N3Cc4ccc(Cl)cc4NC(=O)[C@@H]3Cc3ccccn3)cc2)nc1` [Example 19d, (S)-4-((8-chloro-2-oxo-3-(pyridin-2-ylmethyl)-2,3-dihydro-1H-benzo[e][1,4]diazepin-4(5H)-yl)sulfonyl)-N-(5-methoxypyridin-2-yl)benzamide] has an IC50 of 100 to 999 nM. Work on `Cc1cnc(NC(=O)c2ccc(S(=O)(=O)N3Cc4ccc(Cl)cc4NC(=O)[C@@H]3Cc3ccccn3)cc2)nc1` [Example 19e, (S)-4-((8-chloro-2-oxo-3-(pyridin-2-ylmethyl)-2,3-dihydro-1H-benzo[e][1,4]diazepin-4(5H)-yl)sulfonyl)-N-(5-methylpyrimidin-2-yl)benzamide] yielded an IC50 of 100 to 999 nM. For `COc1ccc(NC(=O)c2ccc(S(=O)(=O)N3Cc4ccc(Cl)cc4NC(=O)[C@H]3Cc3ccccn3)cc2)nc1` [Example 19f, (R)-4-((8-chloro-2-oxo-3-(pyridin-2-ylmethyl)-2,3-dihydro-1H-benzo[e][1,4]diazepin-4(5H)-yl)sulfonyl)-N-(5-methoxypyridin-2-yl)benzamide], the IC50 was 100 to 999 nM. `Cc1cnc(NC(=O)c2ccc(S(=O)(=O)N3Cc4ccc(Cl)cc4NC(=O)[C@H]3Cc3ccccn3)cc2)nc1` [Example 19g, (R)-4-((8-chloro-2-oxo-3-(pyridin-2-ylmethyl)-2,3-dihydro-1H-benzo[e][1,4]diazepin-4(5H)-yl)sulfonyl)-N-(5-methylpyrimidin-2-yl)benzamide] showed an IC50 of less than 100 nM. Work on `COc1cnc(NC(=O)c2ccc(S(=O)(=O)N3Cc4ccc(Cl)cc4NC(=O)[C@H]3Cc3ccccn3)cc2)nc1` [Example 19h, (R)-4-((8-chloro-2-oxo-3-(pyridin-2-ylmethyl)-2,3-dihydro-1H-benzo[e][1,4]diazepin-4(5H)-yl)sulfonyl)-N-(5-methoxypyrimidin-2-yl)benzamide] yielded an IC50 of less than 100 nM. Work on `O=C(Nc1ccccn1)c1ccc(C(=O)N2Cc3ccc(Cl)cc3NC(=O)[C@H]2Cc2ccccn2)cc1` [Example 19i, (R)-4-(8-chloro-2-oxo-3-(pyridin-2-ylmethyl)-2,3,4,5-tetrahydro-1H-benzo[e][1,4]diazepine-4-carbonyl)-N-(pyridin-2-yl)benzamide] yielded an IC50 of 1000 to 10000 nM. `O=C(Nc1ccccn1)c1cccc(S(=O)(=O)N2Cc3ccc(Cl)cc3NC(=O)[C@H]2Cc2ccccn2)c1` [Example 19j, (R)-3-((8-chloro-2-oxo-3-(pyridin-2-ylmethyl)-2,3-dihydro-1H-benzo[e][1,4]diazepin-4(5H)-yl)sulfonyl)-N-(pyridin-2-yl)benzamide] was tested, and the IC50 was 10000 to 35000 nM. `O=C(Nc1ccccn1)c1ccc(CN2Cc3ccc(Cl)cc3NC(=O)[C@H]2Cc2ccccn2)cc1` [Example 20a, (R)-4-((8-Chloro-2-oxo-3-(pyridin-2-ylmethyl)-2,3-dihydro-1H-benzo[e][1,4]diazepin-4(5H)-yl)methyl)-N-(pyridin-2-yl)benzamide] showed an IC50 of 1000 to 10000 nM. With `O=C(Nc1cc(CN2C(=O)c3ccc(Cl)cc3NC(=O)[C@H]2Cc2ccccn2)ccc1C(=O)O)c1ccccn1` [Example 21a, (R)-4-((8-Chloro-2,5-dioxo-3-(pyridin-2-ylmethyl)-2,3-dihydro-1H-benzo[e][1,4]diazepin-4(5H)-yl)methyl)-2-(picolinamido)benzoic Acid] the IC50 was 1000 to 10000 nM. In the case of `CC(=O)Nc1cc(CN2C(=O)c3ccc(Cl)cc3NC(=O)[C@H]2Cc2ccccn2)ccc1C(=O)O` [Example 22a, (R)-2-Acetamido-4-((8-chloro-2,5-dioxo-3-(pyridin-2-ylmethyl)-2,3-dihydro-1H-benzo[e][1,4]diazepin-4(5H)-yl)methyl)benzoic Acid], the IC50 is reported as 100 to 999 nM. Work on `COCC(=O)Nc1cc(CN2C(=O)c3ccc(Cl)cc3NC(=O)[C@H]2Cc2ccccn2)ccc1C(=O)O` [Example 22b] yielded an IC50 of 100 to 999 nM. For `O=C(O)c1ccc(CN2C(=O)c3ccc(Cl)cc3NC(=O)[C@H]2Cc2ccccn2)cc1NC(=O)C1CCCCC1` [Example 22c], the IC50 was 100 to 999 nM. Compound `CN(C)CC(=O)Nc1cc(CN2C(=O)c3ccc(Cl)cc3NC(=O)[C@H]2Cc2ccccn2)ccc1C(=O)O` [Example 22d] has an IC50 of 1000 to 10000 nM. For `COCCC(=O)Nc1cc(CN2C(=O)c3ccc(Cl)cc3NC(=O)[C@H]2Cc2ccccn2)ccc1C(=O)O` [Example 22e], the IC50 was 1000 to 10000 nM. `O=C(Nc1cc(CN2C(=O)c3ccc(Cl)cc3NC(=O)[C@H]2Cc2ccccn2)ccc1C(=O)O)c1ccncc1` [Example 22f] gave an IC50 of 1000 to 10000 nM. `O=C(Nc1cc(CN2C(=O)c3ccc(Cl)cc3NC(=O)[C@H]2Cc2ccccn2)ccc1C(=O)O)c1cccnc1` [Example 22g] showed an IC50 of 1000 to 10000 nM. For `O=C(CN1CCOCC1)Nc1cc(CN2C(=O)c3ccc(Cl)cc3NC(=O)[C@H]2Cc2ccccn2)ccc1C(=O)O` [Example 22h], the IC50 was 1000 to 10000 nM. In the case of `CN1CCC(C(=O)Nc2cc(CN3C(=O)c4ccc(Cl)cc4NC(=O)[C@H]3Cc3ccccn3)ccc2C(=O)O)CC1` [Example 22i], the IC50 is reported as 10000 to 35000 nM. In the case of `CN1CCN(CC(=O)Nc2cc(CN3C(=O)c4ccc(Cl)cc4NC(=O)[C@H]3Cc3ccccn3)ccc2C(=O)O)CC1` [Example 22j], the IC50 is reported as 1000 to 10000 nM. Compound `CN(C)CCC(=O)Nc1cc(CN2C(=O)c3ccc(Cl)cc3NC(=O)[C@H]2Cc2ccccn2)ccc1C(=O)O` [Example 22k] has an IC50 of 100 to 999 nM. For `CN1CCC(CC(=O)Nc2cc(CN3C(=O)c4ccc(Cl)cc4NC(=O)[C@H]3Cc3ccccn3)ccc2C(=O)O)CC1` [Example 22l], the IC50 was 100 to 999 nM. In the case of `O=C(O)c1ccc(CN2C(=O)c3ccc(Cl)cc3NC(=O)[C@H]2Cc2ccccn2)cc1NC(=O)C1CCOCC1` [Example 22m], the IC50 is reported as 100 to 999 nM. `O=C(CN1CCCC1)Nc1cc(CN2C(=O)c3ccc(Cl)cc3NC(=O)[C@H]2Cc2ccccn2)ccc1C(=O)O` [Example 22n] was tested, and the IC50 was 100 to 999 nM. With `O=C(CO)Nc1cc(CN2C(=O)c3ccc(Cl)cc3NC(=O)[C@H]2Cc2ccccn2)ccc1C(=O)O` [Example 22o] the IC50 was 100 to 999 nM. In the case of `Nc1ccc(CN2C(=O)c3ccc(Cl)cc3NC(=O)[C@H]2Cc2ccccn2)cc1` [Example 23a, (R)-4-(4-Aminobenzyl)-8-chloro-3-(pyridin-2-ylmethyl)-3,4-dihydro-1H-benzo[e][1,4]diazepine-2,5-dione], the IC50 is reported as 1000 to 10000 nM. Compound `Cc1cc(CN2C(=O)c3ccc(Cl)cc3NC(=O)[C@H]2Cc2ccccn2)cc(C)c1N` [Example 24a, (R)-4-(4-Amino-3,5-dimethylbenzyl)-8-chloro-3-(pyridin-2-ylmethyl)-3,4-dihydro-1H-benzo[e][1,4]diazepine-2,5-dione] has an IC50 of 10000 to 35000 nM. For `Cc1ccc(C(=O)N[C@H]2CC[C@H](CN3C(=O)c4ccc(Cl)cc4NC(=O)[C@H]3Cc3ccccn3)CC2)nc1` [Example 25a, N-((1R,4r)-4-(((R)-8-Chloro-2,5-dioxo-3-(pyridin-2-ylmethyl)-2,3-dihydro-1H-benzo[e][1,4]diazepin-4(5H)-yl)methyl)cyclohexyl)-5-methylpicolinamide], the IC50 was 100 to 999 nM. Compound `O=C(Nc1ccc(CN2C(=O)c3ccc(Cl)cc3NC(=O)[C@H]2Cc2cccnc2)cc1)c1ccccn1` [Example 26a, (R)—N-(4-((8-Chloro-2,5-dioxo-3-(pyridin-3-ylmethyl)-2,3-dihydro-1H-benzo[e][1,4]diazepin-4(5H)-yl)methyl)phenyl)picolinamide] has an IC50 of 100 to 999 nM. With `O=C(Nc1ccc(CN2C(=O)c3ccc(Cl)cc3NC(=O)[C@H]2Cc2ccccn2)cc1)c1ccccn1` [Example 26b] the IC50 was less than 100 nM. Compound `Cc1ccnc(C(=O)Nc2ccc(CN3C(=O)c4ccc(Cl)cc4NC(=O)[C@H]3Cc3ccccn3)cc2)c1` [Example 26c] has an IC50 of less than 100 nM. Work on `Cc1cccc(C(=O)Nc2ccc(CN3C(=O)c4ccc(Cl)cc4NC(=O)[C@H]3Cc3ccccn3)cc2)n1` [Example 26d] yielded an IC50 of 1000 to 10000 nM. In the case of `Cc1cccnc1C(=O)Nc1ccc(CN2C(=O)c3ccc(Cl)cc3NC(=O)[C@H]2Cc2ccccn2)cc1` [Example 26e], the IC50 is reported as 1000 to 10000 nM. In the case of `Cc1ccc(C(=O)Nc2ccc(CN3C(=O)c4ccc(Cl)cc4NC(=O)[C@H]3Cc3ccccn3)cc2)nc1` [Example 26f], the IC50 is reported as less than 100 nM. `O=C(Nc1ccc(CN2C(=O)c3ccc(Cl)cc3NC(=O)[C@H]2Cc2ccccn2)cc1)c1ncccc1Cl` [Example 26g] showed an IC50 of 1000 to 10000 nM. Compound `O=C(Nc1ccc(CN2C(=O)c3ccc(Cl)cc3NC(=O)[C@H]2Cc2ccccn2)cc1)c1cc(Cl)ccn1` [Example 26h] has an IC50 of 100 to 999 nM. `O=C(Nc1ccc(CN2C(=O)c3ccc(Cl)cc3NC(=O)[C@H]2Cc2ccccn2)cc1)c1ccc(Cl)cn1` [Example 26i] gave an IC50 of less than 100 nM. Work on `O=C(N[C@H]1CC[C@H](CN2C(=O)c3ccc(Cl)cc3NC(=O)[C@H]2Cc2ccccn2)CC1)c1ccccn1` [Example 26j] yielded an IC50 of 100 to 999 nM. In the case of `Cc1cc(CN2C(=O)c3ccc(Cl)cc3NC(=O)[C@H]2Cc2ccccn2)cc(C)c1NC(=O)c1ccccn1` [Example 26k], the IC50 is reported as 100 to 999 nM. `Cc1ccc(C(=O)Nc2c(C)cc(CN3C(=O)c4ccc(Cl)cc4NC(=O)[C@H]3Cc3ccccn3)cc2C)nc1` [Example 26l] showed an IC50 of 100 to 999 nM. With `O=C(Nc1ccc(CN2C(=O)c3ccc(Cl)cc3NC(=O)[C@H]2Cc2ccccn2)cc1)c1cccnc1O` [Example 27a, (R)—N-(4-((8-Chloro-2,5-dioxo-3-(pyridin-2-ylmethyl)-2,3-dihydro-1H-benzo[e][1,4]diazepin-4(5H)-yl)methyl)phenyl)-2-hydroxynicotinamide] the IC50 was 1000 to 10000 nM. With `O=C(CO)Nc1ccc(CN2C(=O)c3ccc(Cl)cc3NC(=O)[C@H]2Cc2ccccn2)cc1` [Example 27b] the IC50 was 100 to 999 nM.
